Structures are written as SMILES. Where “and” joins values, the source holds several entries; their conditions need not be identical. Identical values can stand only once. Calls of active or inactive are those of the source.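 Rule for the calls: active = at least one rat sex group has a carcinogenic potency value and tumor site recorded; inconclusive = only rat studies were judged inadequate by the national testing program; inactive = no potency or tumor site, with negative rat experiments.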

This series concerns rat chronic carcinogenicity bioassay, TD50. Put plainly: DSSTox (CPDBAS) Carcinogenic Potency Database Summary Rat Bioassay Results. To be noted: for Potency: stronger effect = lower value. In short, it runs like this: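 Chronic long-term rat cancer bioassays from literature and NCI/NTP, taking the most positive result per sex. TD50 in mmol converted to a 1–100 Activity Score from log10(1/TD50). Mixtures lacking TD50 scored 50.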

Where [1] appears, read: TD50_Rat_Note: no positive results, TargetSites_Rat_Female: no positive results.
Where [2] appears, read: TargetSites_Rat_BothSexes: stomach.
The mark [3] stands for this setting: TargetSites_Rat_Female: no positive results.
[4] abbreviates: TD50_Rat_Note: no positive results.
The mark [5] stands for this setting: TD50_Rat_Note: TD50 is harmonic mean of more than one positive test, TargetSites_Rat_Female: lung.
Setting [6] is: TD50_Rat_Note: positive test results only by intraperitoneal or intravenous injection.

`CCCc1cc(=O)[nH]c(=S)[nH]1`: the Potency (TD50_Rat_Note: TD50 is harmonic mean of more than one positive test, TargetSites_Rat_Female: thyroid gland) was 13.7 mg/kg/day. For `O=C1O[C@@H](CN2CCOCC2)CN1/N=C/c1ccc([N+](=O)[O-])o1`, where the note is “TargetSites_Rat_Female: hematopoietic system, kidney, mammary gland”, the Potency was 6.33 mg/kg/day.

Take `O=S(=O)(c1ccc(Cl)cc1)c1ccc(Cl)cc1`: under setting [1], the outcome was “inactive; no positive results”. On to `Cn1cc(OCC(O)CNC(C)(C)C)c2ccccc2c1=O` (centres undefined), for which the outcome under setting [1] is “inactive; no positive results”. In the case of `CN(N=O)C(=O)Nc1nc2ccccc2s1`, under setting [2], the Potency was 1.13 mg/kg/day. As for `Cc1cc(N=Nc2c(O)ccc3ccccc23)c(S(=O)(=O)O)cc1Cl`, the Potency under setting [3] was 146 mg/kg/day.

Turning to `O=NN1CC=CCC1`, the Potency (TD50_Rat_Note: TD50 is harmonic mean of more than one positive test, harmonic mean of TD50 includes a value for upper 99% confidence li, TargetSites_Rat_Female: esophagus, liver, stomach, vascular system) is 0.0601 mg/kg/day.

As for `CC(O)CN(CC(C)O)CC(C)O` (centres undefined), under setting [4], the outcome is “inactive; no positive results”. On to `O=S(=O)([O-])[O-].[Cd+2]`, for which, under setting [5], the Potency is 0.0217 mg/kg/day. Regarding `C=CC(=O)OCC`, for the setting “TD50_Rat_Note: TD50 is harmonic mean of more than one positive test, TargetSites_Rat_Female: stomach”, the Potency is 119 mg/kg/day.

As for `ClC1(Cl)C2(Cl)C3C4(Cl)C1(Cl)C1(Cl)C4(Cl)C(Cl)(Cl)C3(Cl)C21Cl` (centres undefined), the Potency was 1.46 mg/kg/day. For `FC(Cl)C(F)(F)F` (centres undefined), under setting [1], the outcome was inactive.

With `[CH3][Hg][Cl]`, under setting [1], the outcome was “inactive; no positive results”.

As to `CCC(CC)C(=O)NC(N)=O`, the outcome under setting [4] was “inactive; no positive results”. Turning to `O[C@H]([C@H](O)[C@@H](O)CBr)[C@H](O)CBr`, the Potency under setting [6] is 8.37 mg/kg/day.

Take `CCOc1ccc(NC(N)=O)cc1`: the Potency (TargetSites_Rat_BothSexes: liver) is 537 mg/kg/day. Regarding `O=C(c1ccccc1)C(O)c1ccccc1` (centres undefined), the outcome under setting [1] is “inactive; no positive results”. In the case of `O=NN1CCCCC1c1cccnc1` (centres undefined), the Potency (TD50_Rat_Note: TD50 is harmonic mean of more than one positive test, TargetSites_Rat_Female: esophagus) was 11.9 mg/kg/day. For `CC(=O)N(C(C)=O)c1cccc2c1Cc1ccccc1-2`, the Potency (TargetSites_Rat_Female: ear Zymbals gland, mammary gland) is 19 mg/kg/day.

On to `c1ccncc1`, for which, under setting [3], the Potency was 67.3 mg/kg/day. With `COc1cc(OC)c2c3c(c(=O)oc2c1)C(=O)CC3`, the outcome under setting [4] was “inactive; no positive results”. `ClC(Cl)=C(c1ccc(Cl)cc1)c1ccc(Cl)cc1`: under setting [1], the outcome is “inactive; no positive results”. As for `CN(CC(O)CO)N=O` (centres undefined), the Potency (TargetSites_Rat_Female: esophagus, liver, lung, nasal cavity) was 0.646 mg/kg/day. Take `c1ccoc1`: for the setting “TD50_Rat_Note: TD50 is harmonic mean of more than one positive test, TargetSites_Rat_Female: hematopoietic system, liver”, the Potency was 0.396 mg/kg/day. `CC(C)=NO`: under setting [3], the Potency was 12.1 mg/kg/day. For the compound `CCCCCc1cc(O)c2c(c1)OC(C)(C)[C@@H]1CCC(C)=C[C@@H]21`, the outcome under setting [1] was “inactive; no positive results”. Take `CC(C)CCCCCCOC(=O)c1ccccc1C(=O)OCCCCCCC(C)C`: the Potency (TD50_Rat_Note: TD50 is harmonic mean of more than one positive test, TD50_Rat_mmol was not calculated for this mixture, but Activiity S, TargetSites_Rat_Female: hematopoietic system, liver) was 861 mg/kg/day. `CC(C)NCC(O)COc1ccc(CC(N)=O)cc1` (centres undefined): the outcome under setting [1] is “inactive; no positive results”.

Consider `C1CCNCC1`, for which, under setting [1], the outcome was “inactive; no positive results”.

In the case of `CN(C)N=Nc1ccccc1`, under “TargetSites_Rat_BothSexes: nervous system”, the Potency is 2.31 mg/kg/day. Take `O=CNc1nc(-c2ccc([N+](=O)[O-])o2)cs1`: the Potency (TD50_Rat_Note: TD50 is harmonic mean of more than one positive test, harmonic mean of TD50 includes a value for upper 99% confidence li, TargetSites_Rat_Female: urinary bladder) is 4.25 mg/kg/day. On to `C=CCCl`, for which the outcome (TD50_Rat_Note: only experiment is NCI/NTP bioassay inadequate, TargetSites_Rat_Female: NTP bioassay inadequate) is reported as “ntp bioassay inadequate”. Take `Cc1ccc2c(c1)C(N1CCN(C)CC1)=Nc1ccccc1S2`: the outcome under setting [1] was “inactive; no positive results”.

As to `O=S(=O)(O)O`, the Potency under setting [5] is 40.8 mg/kg/day.

For `CC(O)CNC(=O)N(N=O)C(C)Cl` (centres undefined), the Potency under setting [3] is 0.124 mg/kg/day. Turning to `ClC1=C(Cl)C2(Cl)C3C(Cl)C=CC3C1(Cl)C2(Cl)Cl` (centres undefined), under setting [1], the outcome was “inactive; no positive results”.

For `CC(C)(C)c1cc(C(C)(C)C)c(O)c(C(C)(C)C)c1`, the outcome under setting [1] was “inactive; no positive results”. Consider `Nc1nc(N)nc(-c2ccc([N+](=O)[O-])o2)n1`, for which, where the note is “TargetSites_Rat_Female: mammary gland”, the Potency is 1.71 mg/kg/day.

As for `NC1CCCCC1`, the outcome under setting [1] is “inactive; no positive results”. On the same count and under the same terms, the same measure for `CCOc1ccc2c(c1)C(C)=CC(C)(C)N2`: “inactive; no positive results”. With `O=NN1CCCN(N=O)C1`, the Potency under setting [6] was 0.166 mg/kg/day. Consider `C1C2OC2C2C1C1CC2C2OC12` (centres undefined), for which the outcome under setting [4] was “inactive; no positive results”. For `CCOC(=O)[C@H](CCc1ccccc1)N[C@@H](C)C(=O)N1Cc2ccccc2C[C@H]1C(=O)O`, the outcome under setting [1] is “inactive; no positive results”. In the case of `O=[N+]([O-])c1ccc(-c2nc(N(CCO)CCO)c3ccccc3n2)s1`, the Potency is 3.14 mg/kg/day.

In the case of `CC(=O)Nc1ccc(N=Nc2cc(C)ccc2O)cc1`, the Potency under setting [3] was 380 mg/kg/day.

As to `CC(=O)Nc1ccc(S(=O)(=O)c2ccc(NC(C)=O)cc2)cc1`, the Potency (TD50_Rat_Note: no positive results are statistically significant, TargetSites_Rat_Female: mammary gland) is 55.6 mg/kg/day. Turning to `CN(N=O)c1ccc(N=O)cc1`, for the setting “TD50_Rat_Note: positive test results only by intraperitoneal or intravenous injection, no positive results are statistically significan”, the Potency is 1.3 mg/kg/day. For `O=[N+]([O-])c1ccc(-c2nc(NCCO)c3ccccc3n2)s1`, where the note is “TargetSites_Rat_Female: all tumor bearing animals”, the Potency is 1.87 mg/kg/day. In the case of `O=C1C=C2C(=CCOC2O)O1` (centres undefined), under setting [1], the outcome was inactive.

As to `CC(C)(C)NCC(O)c1ccc(O)c(CO)c1` (centres undefined), the Potency (TD50_Rat_Note: TD50 is harmonic mean of more than one positive test, TargetSites_Rat_Female: mesovarium) was 40 mg/kg/day.

With `Nc1nnc(-c2ccc([N+](=O)[O-])o2)s1`, under “TargetSites_Rat_Female: kidney, lung, mammary gland, stomach”, the Potency was 0.662 mg/kg/day. For the compound `C/C=C(/C)C(=O)O[C@H]1CCN2CC=C(COC(=O)[C@](O)([C@H](C)OC)C(C)(C)O)[C@H]12`, the Potency (TD50_Rat_Note: TD50 is harmonic mean of more than one positive test, TargetSites_Rat_Female: hematopoietic system, liver, vascular system) was 0.389 mg/kg/day. As to `CCN(Cc1cccc(S(=O)(=O)[O-])c1)c1ccc(C(=C2C=CC(=[N+](C)C)C=C2)c2ccc(N(CC)Cc3cccc(S(=O)(=O)O)c3)cc2)cc1`, where the note is “TD50_Rat_Note: TD50 is harmonic mean of more than one positive test, TargetSites_Rat_Female: mammary gland, skin”, the Potency was 612 mg/kg/day. For the compound `COc1cc2c(c3oc(=O)c4c(c13)CCC4=O)C1C=COC1O2` (centres undefined), the Potency (TD50_Rat_Note: TD50 is harmonic mean of more than one positive test, harmonic mean of TD50 includes a value for upper 99% confidence li, TargetSites_Rat_Female: large intestine, liver) is 0.0032 mg/kg/day. As to `O[C@@H]([C@H](O)[C@@H](O)CBr)[C@@H](O)CBr`, under “TD50_Rat_Note: positive test results only by intraperitoneal or intravenous injection, TD50 is harmonic mean of more than one positive, TargetSites_Rat_Female: mammary gland, peritoneal cavity”, the Potency was 27.6 mg/kg/day.

For `FC(F)(F)CCl`, the Potency (TD50_Rat_Note: TD50 is harmonic mean of more than one positive test, TargetSites_Rat_Female: uterus) was 87.3 mg/kg/day. With `Cc1c(C)c2c(c(C)c1O)CCC(C)(CCCC(C)CCCC(C)CCCC(C)C)O2` (centres undefined), the outcome under setting [1] is “inactive; no positive results”.

With `O=C(O)CN(CC(=O)O)CC(=O)O`, the Potency (TD50_Rat_Note: TD50 is harmonic mean of more than one positive test, TargetSites_Rat_Female: kidney, urinary bladder) is 1770 mg/kg/day and 370 mg/kg/day.

For `Cc1ccccc1`, the Potency (TD50_Rat_Note: TD50 is harmonic mean of more than one positive test, TargetSites_Rat_Female: Maltoni head cancers) was 3060 mg/kg/day. With `O=C1NC(=O)C(c2ccccc2)(c2ccccc2)N1`, the outcome under setting [1] was “inactive; no positive results”.

As for `Cc1ccc(-c2cc(C(F)(F)F)nn2-c2ccc(S(N)(=O)=O)cc2)cc1`, the outcome under setting [4] was “inactive; no positive results”. On to `O=C1c2ccccc2C(=O)N1SC(Cl)(Cl)Cl`, for which the outcome under setting [1] is “inactive; no positive results”. With `Nc1ccc2c(c1)oc1ccccc12`, the Potency was 2.48 mg/kg/day. Consider `CN(N=O)C(=O)c1c(N(C)N=O)ncn1C`, for which the Potency under setting [2] was 0.183 mg/kg/day. Turning to `ClC=C(Cl)Cl`, for the setting “TD50_Rat_Note: TD50 is harmonic mean of more than one positive test, TargetSites_Rat_Female: no positive results”, the Potency was 668 mg/kg/day. In addition, the outcome under setting [1] is “inactive; no positive results”.

Consider `N[C@@H](Cc1ccc(N(CCCl)CCCl)cc1)C(=O)O`, for which the Potency (TD50_Rat_Note: positive test results only by intraperitoneal or intravenous injection, TD50 is harmonic mean of more than one positive, TargetSites_Rat_Female: peritoneal cavity) was 0.0938 mg/kg/day. In the case of `CC1(C)OC(=O)NC1=O`, the outcome under setting [4] was “inactive; no positive results”. Same read-out and setting: for `Cc1cccc(N)c1` the value was “inactive; no positive results”. As to `COc1ccc(N)cc1`, the outcome under setting [1] was “inactive; no positive results”. `Cc1ccc([N+](=O)[O-])cc1`: the Potency (TargetSites_Rat_Female: clitoral gland) is 257 mg/kg/day. On to `COP(=O)(OC)OC`, for which, under setting [1], the outcome was “inactive; no positive results”. Consider `OCc1ccco1`, for which the Potency under setting [3] was 9.6 mg/kg/day. With `CCCCCl`, the outcome under setting [1] is “inactive; no positive results”. For `CC(C)(OCc1ccc(-c2ccc(Cl)cc2)cc1)C(=O)O`, the outcome under setting [1] is “inactive; no positive results”.

As to `O=C(O)CCl`, under setting [1], the outcome is “inactive; no positive results”. In the case of `NCCCCCC(=O)O`, the outcome under setting [4] is “inactive; no positive results”.

`CN(C#N)N=O`: the Potency (TargetSites_Rat_Female: stomach) was 0.48 mg/kg/day. Regarding `Cc1ccc2c(c1[N+](=O)[O-])C(=O)c1ccccc1C2=O`, the Potency (TD50_Rat_Note: TD50 is harmonic mean of more than one positive test, TargetSites_Rat_Female: liver) was 84.8 mg/kg/day.

Source of the values: PubChem BioAssay AID1208 (EPA DSSTox, 2008).
